Read-outs that look alike come from different tables or passages of the source.

The subject of data set [1] is intact skin of healthy volunteers. As to the kind of experiment: Irritation patch test study under semi-occlusive conditions. Particulars: continuous exposure under semi occlusion, 21 patch applications over 21 days.
Description: This was a randomized, double-blind, single-center, vehicle-controlled, within-subject comparison patch test study of followings for irritation potential when repeatedly applied to the skin under semi-occlusive conditions in healthy volunteers: • i. […] Vehicle spray (without active agent of Composition 6), • iii.
All subjects received applications of each study product to intact skin at randomly assigned, adjacent sites on the back. Evaluators and subjects were blinded and unaware of the identity of the study product at the patch test sites. The study products were applied under semi-occlusive patch conditions using a 2 cm×2 cm patch. The products were applied to either side of the infrascapular area of the back. Evaluation of dermal reactions at the application sites were assessed clinically using a visual scale that rates the degree of erythema, edema, and other signs of cutaneous irritation.
A total of 21 patch applications were made over a period of 21 days. Irritancy score of each composition was recorded.
For data set [2] the following is noted: cited from earlier work.
Another data set relates to skin blanching. Particulars: in vivo; cited from earlier work.

Turning to `CCCCCCCCCCCCOS(=O)(=O)[O-].[Na+]` [0.2% SLS, Sodium lauryl sulfate], the Irritation entry in data set [1] is “Significantly more irritation”.

Regarding `CCC(=O)OCC(=O)[C@@]1(OC(=O)CC)[C@@H](C)C[C@H]2[C@@H]3CCC4=CC(=O)C=C[C@]4(C)[C@@]3(F)[C@@H](O)C[C@@]21C` [Betamethasone dipropionate, 9-fluoro-11(β),17,21-trihydroxy-16(β)-methylpregna-1,4-diene-3,20-dione 17,21-dipropionate], the Solubility entry is listed as “freely soluble” in data set [2] (in acetone), “freely soluble” in data set [2] (in chloroform), “sparingly soluble” in data set [2] (in ethanol) and “practically insoluble” in data set [2] (in water). Besides, the VCA potency class result with skin blanching was “super potent (Class 1) and/or high potent (Class 2)”.
